From paper PMC8512853, “Synthesis, Bioactivity, Pharmacokinetic and Biomimetic Properties of Multi-Substituted Coumarin Derivatives” (Molecules, 2021)

Assays:
[1] = Hydroxyl (HO•) free radical scavenging assay (competition with DMSO)
From the text: The hydroxyl (HO^•) free radical is considered as the most toxic and reactive radical among the ROS, leading to cellular or protein damage, membrane destruction, and even to cellular death when encountered in excess concentration. In this context, the evaluation of the hydroxyl radical scavenging activity of the coumarin analogues was essential. Hydroxyl radicals are mainly produced by the Haber–Weiss reaction in the presence of iron or copper ions. In this protocol, iron-EDTA solution, which catalyzes the autooxidation of ascorbic acid, was used as the hydroxyl radical generation system. In general, the hydroxyl radicals formed oxidize the DMSO to form formaldehyde. The reaction involves the initial interaction of DMSO with the hydroxyl radicals to give methyl radicals, with the final product being formaldehyde, which is determined by Nash method. The intensity of the yellow solution formed was measured at 412 nm against a reagent blank.
For the evaluation of hydroxyl radical scavenging ability, the protocol described by Kontogiorgis et al. was used. In short, each sample was tested in quadruplicate (A, B, C, D). For A and B, 10 μL of coumarin analogs diluted in DMSO (100 mM) were added; for C and D were the respective blanks. Standards (containing DMSO solution) and blanks were all prepared in a similar manner; to the latter an equal amount (10 µL) of solvent was added instead of the tested analogues. According to the protocol described by Klein et al., standard solutions of EDTA, FeCl3, ascorbic acid, and buffer solution (pH 7.4) were also added to each of the tested mixtures. All mixtures were incubated at 37 °C for 30 min, and then 1 mL of Nash solution and […] of CCl3COOH solution were added. After a 10min incubation at 60 °C to allow the formation of the yellow mixture, the absorbance was measured at […].
The results were calculated as performance percentages in relation to the respective standards and blanks according to the following Equation (4):(4) % Scavenging ability= Mean OD(A+B)−Mean OD(C+D)/Mean OD(A+B)

[2] = IAM chromatography (IAM.PC.DD.2 column) and estimated human oral absorption; type: in vitro ADME; conditions: for %HOA estimated human oral absorption: Equation (1) from logkw and physicochemical properties; for logkw (IAM retention factor): pH 7.40, IAM.PC.DD.2, intercept at pure aqueous phase
Description: The immobilized artificial membrane (IAM) chromatographic behavior of the 25 novel coumarin derivatives was studied. IAM stationary phases consisting of monolayers of phospholipids (e.g., phosphatidylcholine, PC) immobilized on a propylamine–silica support can simulate interactions of chemicals with cell membranes.
Using an IAM.PC.DD2 column (Regis Technologies) as the stationary phase with PBS as the mobile phase at pH = 7.40, and a flow rate of 3 mL/min in the presence of acetonitrile fractions (C%) of 10%, 15%, 20%, 25%, and 30%, a logkC% value was obtained via the retention time for each concentration of CH3CN. Retention factors were then used to plot logkC% as a function of acetonitrile fraction. The intercept of the linear regression corresponds to the logkw, corresponding to pure aqueous phase.
(1) % HOA=100/1+10^−(2.17+0.88*logkw−0.006*MW−0.83*A−0.53*F^*++1.18*F^*−)
(§1) The physicochemical and biomimetic properties of the new coumarin analogues were studied using liquid chromatography (HPLC) in 220–230 nm Two types of chromatographic columns were used: (i) immobilized artificial membrane (IAM) ([…].PC.DD.2, Regis Technologies) column and (ii) human serum albumin (HSA) (CHIRAL PAK) column.
(§2) The training set consisted of 25 neutral and slightly acidic compounds. Their IAM retention factors were measured at pH 7.40 on a IAM.PC.DD.2 column. The mobile phase consisted of acetonitrile solvent (CH3CN) in various concentrations (10%, 15%, 20%, 25%, 30%) and a flow rate of 3 mL/min was selected. Their HSA retention factors were measured at pH 7.00 on HSA column. The mobile phase consisted of acetonitrile solvent (CH3CN) in 10% concentration and a flow rate of 1 mL/min was selected.
(§3) The different pH values (7.00 for HSA and 7.40 for IAM) were measured with an electronic pH meter MP125 and were achieved by preparing suitable buffers of phosphates and chlorides (0.12 g KH2PO4, 0.72 g Na2HPO4·2H2O, 4.00 g NaCl and 0.10 g KCl). Sodium citrate solution was used to determine the dead time, which was deducted from the results at the end of measurements. The elution time of each coumarin analogue was measured at least three times. Retention times were converted into logk values, which represent the logarithm of the retention indexes, using Equation (8). (8) logk=log(tr−t0/t0) where tr is the retention time of the coumarin derivative and t0 is the dead time.

[3] = molecular target: T1, human serum albumin (HSA) (Homo sapiens, UniProt P02768); assay: HSA chromatography and estimated plasma protein binding; type: in vitro ADME; conditions: for fraction unbound: human, immobilized human serum albumin (HSA) column, Equation (2) from logk10, pH 7.00, read-out: %PPB estimated plasma protein binding (converted); for logk10 (HSA retention factor): pH 7.00, 10% acetonitrile
T1 construct: purchased CHIRAL PAK
T1 sequence (P02768 25-609): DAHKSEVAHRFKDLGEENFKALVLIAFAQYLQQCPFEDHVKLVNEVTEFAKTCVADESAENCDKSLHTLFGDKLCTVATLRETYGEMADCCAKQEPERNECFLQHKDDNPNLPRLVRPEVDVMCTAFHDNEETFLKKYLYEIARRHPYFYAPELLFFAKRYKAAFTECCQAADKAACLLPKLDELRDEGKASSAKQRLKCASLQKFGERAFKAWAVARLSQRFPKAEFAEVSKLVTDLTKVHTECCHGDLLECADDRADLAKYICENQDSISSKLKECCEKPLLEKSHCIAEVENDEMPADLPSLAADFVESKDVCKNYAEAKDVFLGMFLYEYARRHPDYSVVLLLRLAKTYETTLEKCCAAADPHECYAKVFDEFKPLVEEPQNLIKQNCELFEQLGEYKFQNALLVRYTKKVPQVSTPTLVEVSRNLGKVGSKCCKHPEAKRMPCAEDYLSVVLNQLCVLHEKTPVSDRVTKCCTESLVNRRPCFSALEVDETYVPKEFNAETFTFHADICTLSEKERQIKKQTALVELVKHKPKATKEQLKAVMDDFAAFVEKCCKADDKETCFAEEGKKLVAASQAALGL
Description: The novel coumarin derivatives were also studied using the immobilized protein column HSA. An HSA chromatographic column provides estimates on the binding affinities of chemicals to human serum albumin, which is the most abundant plasma protein and is related to drug efficacy, drug—drug pharmacokinetic interactions, and drug safety. HSA binding can be considered to represent almost the total plasma protein binding of a drug.
Retention factors on the HSA stationary phase were measured using as eluent PBS at pH = 7.00 and a flow rate of 1 mL/min in the presence of 10% acetonitrile.
(2) % PPB=101∗10^logk10/1+10^logk10
as §1, §2, §3

Compound | HO^• % (100 μΜ) scavenging [1] [%] | %HOA estimated human oral absorption [2] [%] | logkw (IAM retention factor) [2] | fraction unbound [3] | logk10 (HSA retention factor) [3]
CC(=O)Oc1cccc2oc(=O)c(-c3ccccc3Cl)c(C)c12 [Compound 3a, 5-acetyloxy-3-(2-chlorophenyl)-4-methyl-chromen-2-one] | 97.0 | 100 | 3.58 | 0.202 | 0.57
CC(=O)Oc1cccc2oc(=O)c(-c3cccc(Cl)c3)c(C)c12 [Compound 3b, 5-acetyloxy-3-(3-chlorophenyl)-4-methyl-chromen-2-one] | 96.4 | 99.8 | 2.88 | 0.128 | 0.80
CC(=O)Oc1cccc2oc(=O)c(-c3ccc(Cl)cc3)c(C)c12 [Compound 3c, 5-acetyloxy-3-(4-chlorophenyl)-4-methyl-chromen-2-one] | 30.8 | 99.9 | 3.05 | 0.091 | 0.96
CC(=O)Oc1cccc2oc(=O)c(-c3ccccc3F)c(C)c12 [Compound 3d, 5-acetyloxy-3-(2-fluorophenyl)-4-methyl-chromen-2-one] | 100 | 99.7 | 2.56 | 0.149 | 0.73
CC(=O)Oc1cccc2oc(=O)c(-c3cccc(F)c3)c(C)c12 [Compound 3e, 5-acetyloxy-3-(3-fluorophenyl)-4-methyl-chromen-2-one] | 85.2 | 99.7 | 2.47 | 0.149 | 0.73
CC(=O)Oc1cccc2oc(=O)c(-c3ccc(F)cc3)c(C)c12 [Compound 3f, 5-acetyloxy-3-(4-fluorophenyl)-4-methyl-chromen-2-one] | 71.6 | 99.7 | 2.52 | 0.206 | 0.57
CC(=O)Oc1cccc2oc(=O)c(-c3cccc(Br)c3)c(C)c12 [Compound 3g, 5-acetyloxy-3-(3-bromophenyl)-4-methyl-chromen-2-one] | 42.0 | 100.0 | 4.77 | 0.12 | 0.83
CC(=O)Oc1ccc(-c2c(C)c3ccccc3oc2=O)cc1 [Compound 3h, 3-(4-acetyloxyphenyl)-4-methyl-chromen-2-one] | 100 | 99.7 | 2.48 | 0.145 | 0.74
CC(=O)Oc1ccc(-c2c(C)c3cc(Br)ccc3oc2=O)cc1 [Compound 3i, 3-(4-acetyloxyphenyl)-6-bromo-4-methyl-chromen-2-one] | 64.5 | 99.8 | 3.28 | 0.059 | 1.14
CC(=O)Oc1ccc(-c2c(C)c3cc(Cl)ccc3oc2=O)cc1 [Compound 3j, 3-(4-acetyloxyphenyl)-6-chloro-4-methyl-chromen-2-one] | 26.6 | 99.9 | 3.06 | 0.088 | 0.97
CC(=O)Oc1ccc(-c2c(C)c3cc(Br)cc(Br)c3oc2=O)cc1 [Compound 3k, 3-(4-acetyloxyphenyl)-6,8-dibromo-4-methyl-chromen-2-one] | 92.9 | 99.9 | 3.91 | 0.013 | 1.63
CC(=O)Oc1ccc(-c2c(C)c3ccccc3oc2=O)cc1OC(C)=O [Compound 3l, 3-(4,5-diacetyloxyphenyl)-4-methyl-chromen-2-one] | 10.7 | 99.4 | 2.43 | 0.401 | 0.16
CC(=O)Oc1ccc(-c2c(C)c3cc(Br)ccc3oc2=O)cc1OC(C)=O [Compound 3m, 3-(4,5-diacetyloxyphenyl)-6-bromo-4-methyl-chromen-2-one] | 46.7 | 99.6 | 3.21 | 0.105 | 0.89
CC(=O)Oc1ccc(-c2c(C)c3cc(Cl)ccc3oc2=O)cc1OC(C)=O [Compound 3n, 3-(4,5-diacetyloxyphenyl)-6-chloro-4-methyl-chromen-2-one] | 65.7 | 99.7 | 3.04 | 0.145 | 0.74
CC(=O)Oc1ccc(-c2c(C)c3cc(Br)cc(Br)c3oc2=O)cc1OC(C)=O [Compound 3o, 3-(4,5-diacetyloxyphenyl)-6,8-dibromo-4-methyl-chromen-2-one] | 52.1 | 99.6 | 3.79 | 0.201 | 0.58
Cc1c(-c2ccccc2Cl)c(=O)oc2cccc(O)c12 [Compound 4a, 3-(2-chlorophenyl)-5-hydroxy-4-methyl-chromen-2-one] | 37.3 | 100 | 4.09 | 0.13 | 0.79
Cc1c(-c2cccc(Cl)c2)c(=O)oc2cccc(O)c12 [Compound 4b, 3-(3-chlorophenyl)-5-hydroxy-4-methyl-chromen-2-one] | 100 | 99.9 | 3.73 | 0.201 | 0.58
Cc1c(-c2ccc(Cl)cc2)c(=O)oc2cccc(O)c12 [Compound 4c, 3-(4-chlorophenyl)-5-hydroxy-4-methyl-chromen-2-one] | 48.5 | 100 | 4.53 | 0.152 | 0.72
Cc1c(-c2ccc(O)cc2)c(=O)oc2c(Br)cc(Br)cc12 [Compound 4k, 6,8-dibromo-3-(4-hydroxyphenyl)-4-methyl-chromen-2-one] | 100 |  |  |  | 
